According to PubChem BioAssay AID2060486 (Molecular Pharmacology Branch, DTP, NCI, 2025):

Test system: IGROV1 complex spheroids (HUVEC, MSC), viability % test/control
Assay: Anticancer human tumor IGROV1 cell line growth inhibition [GQUAD];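 note: spheroids exposed to compounds for 7 days before readout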;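 for viability, T/C: 100% = DMSO vehicle control viability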
Conditions: for IC50: curve of first compound; for viability, T/C: stronger effect = lower value; active = viability on the fitted dose curve at most 10% of control; inactive = the rest
Summary of the method: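 Tumor cells were grown as complex spheroids with HUVEC endothelial cells and mesenchymal stem cells as stroma. G-quadruplex stabilizers were combined with targeted agents over half-log dilutions from near the clinical Cmax, or from 10 microM.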

[1] = second compound 0.0316 µM, first compound 0.0316 µM
[2] = second compound 0.0316 µM, first compound 0.1 µM
[3] = second compound 0.0316 µM, first compound 0.316 µM
[4] = second compound 0.0316 µM, first compound 1 µM
[5] = second compound 0.0316 µM, first compound 3.16 µM
[6] = second compound 0.0316 µM, first compound 10 µM
[7] = second compound 0.1 µM, first compound 0.0316 µM
[8] = second compound 0.1 µM, first compound 0.1 µM
[9] = second compound 0.1 µM, first compound 0.316 µM
[10] = second compound 0.1 µM, first compound 1 µM
[11] = second compound 0.1 µM, first compound 3.16 µM
[12] = second compound 0.1 µM, first compound 10 µM
[13] = second compound 0.316 µM, first compound 0.0316 µM
[14] = second compound 0.316 µM, first compound 0.1 µM
[15] = second compound 0.316 µM, first compound 0.316 µM
[16] = second compound 0.316 µM, first compound 1 µM
[17] = second compound 0.316 µM, first compound 3.16 µM
[18] = second compound 0.316 µM, first compound 10 µM
[19] = second compound 1 µM, first compound 0.0316 µM
[20] = second compound 1 µM, first compound 0.1 µM
[21] = second compound 1 µM, first compound 0.316 µM
[22] = second compound 1 µM, first compound 1 µM
[23] = second compound 1 µM, first compound 3.16 µM
[24] = second compound 1 µM, first compound 10 µM
[25] = second compound 3.16 µM, first compound 0.0316 µM
[26] = second compound 3.16 µM, first compound 0.1 µM
[27] = second compound 3.16 µM, first compound 0.316 µM
[28] = second compound 3.16 µM, first compound 1 µM
[29] = second compound 3.16 µM, first compound 3.16 µM
[30] = second compound 3.16 µM, first compound 10 µM
[31] = second compound 10 µM, first compound 0.0316 µM
[32] = second compound 10 µM, first compound 0.1 µM
[33] = second compound 10 µM, first compound 0.316 µM
[34] = second compound 10 µM, first compound 1 µM
[35] = second compound 10 µM, first compound 3.16 µM
[36] = second compound 10 µM, first compound 10 µM

COc1cccc2c1C(=O)c1c(O)c3c(c(O)c1C2=O)CC(O)(C(=O)CO)CC3OC1CC(N)C(O)C(C)O1 (stereo unspecified) + Cc1cnc(CNC(=O)c2c(=O)c3ccc(N4CCCN(C)CC4)nc3n3c2sc2ccccc23)cn1
active: viability, T/C [3] 7.47% | viability, T/C [4] 4.08% | viability, T/C [5] 0.07% | viability, T/C [6] 0.9% | viability, T/C [9] 9.07% | viability, T/C [10] 3.71% | viability, T/C [11] 0.05% | viability, T/C [12] 0.74% | viability, T/C [15] 7.44% | viability, T/C [16] 3.57% | viability, T/C [17] 0.07% | viability, T/C [18] 0.73% | viability, T/C [20] 9.55% | viability, T/C [21] 7.95% | viability, T/C [22] 3.7% | viability, T/C [23] 0.05% | viability, T/C [24] 0.66% | viability, T/C [26] 9.14% | viability, T/C [27] 6.91% | viability, T/C [28] 2.27% | viability, T/C [29] 0.07% | viability, T/C [30] 0.41% | viability, T/C [32] 8.57% | viability, T/C [33] 5.52% | viability, T/C [34] 1.8% | viability, T/C [35] 0.14% | viability, T/C [36] 0.45%
inactive: viability, T/C [1] 40.4% | viability, T/C [2] 21.2% | viability, T/C [7] 29.5% | viability, T/C [8] 15.3% | viability, T/C [13] 18.7% | viability, T/C [14] 14.9% | viability, T/C [19] 11.8% | viability, T/C [25] 10.9% | viability, T/C [31] 11.1%
< 31.6 nM: IC50 (second compound 0.0316 µM) | IC50 (second compound 0.1 µM) | IC50 (second compound 0.316 µM) | IC50 (second compound 1 µM) | IC50 (second compound 3.16 µM) | IC50 (second compound 10 µM)

Nc1ccn(C2OC(CO)C(O)C2(F)F)c(=O)n1 (stereo unspecified) + Cc1cnc(CNC(=O)c2c(=O)c3ccc(N4CCCN(C)CC4)nc3n3c2sc2ccccc23)cn1
inactive: viability, T/C [1] 10.5% | viability, T/C [7] 12.7% | viability, T/C [13] 11.5% | viability, T/C [19] 11.1% | viability, T/C [31] 9.97%
active: viability, T/C [2] 5.6% | viability, T/C [3] 5.15% | viability, T/C [4] 4.7% | viability, T/C [5] 4.99% | viability, T/C [6] 4.44% | viability, T/C [8] 4.99% | viability, T/C [9] 8.19% | viability, T/C [10] 6.35% | viability, T/C [11] 5.18% | viability, T/C [12] 3.96% | viability, T/C [14] 5.16% | viability, T/C [15] 5.92% | viability, T/C [16] 5.56% | viability, T/C [17] 4.85% | viability, T/C [18] 4.62% | viability, T/C [20] 7% | viability, T/C [21] 6.75% | viability, T/C [22] 6.61% | viability, T/C [23] 4.42% | viability, T/C [24] 4.28% | viability, T/C [25] 6.61% | viability, T/C [26] 7.28% | viability, T/C [27] 6.54% | viability, T/C [28] 5.77% | viability, T/C [29] 5.25% | viability, T/C [30] 3.96% | viability, T/C [32] 6.38% | viability, T/C [33] 5.25% | viability, T/C [34] 7.22% | viability, T/C [35] 5.43% | viability, T/C [36] 3.66%
< 31.6 nM: IC50 (second compound 0.0316 µM) | IC50 (second compound 0.1 µM) | IC50 (second compound 0.316 µM) | IC50 (second compound 1 µM) | IC50 (second compound 3.16 µM) | IC50 (second compound 10 µM)

O=c1[nH]cc(F)c(=O)[nH]1 + Cc1cnc(CNC(=O)c2c(=O)c3ccc(N4CCCN(C)CC4)nc3n3c2sc2ccccc23)cn1
< 31.6 nM: IC50 (second compound 0.1 µM) | IC50 (second compound 0.316 µM) | IC50 (second compound 1 µM) | IC50 (second compound 3.16 µM) | IC50 (second compound 10 µM)
4520 nM: IC50 (second compound 0.0316 µM)
active: viability, T/C [32] 8.66% | viability, T/C [33] 10.8% | viability, T/C [34] 9.81% | viability, T/C [35] 9.32% | viability, T/C [36] 5.96%
inactive: viability, T/C [1] 69.8% | viability, T/C [2] 66.3% | viability, T/C [3] 51.5% | viability, T/C [4] 66.9% | viability, T/C [5] 63.7% | viability, T/C [6] 20.2% | viability, T/C [7] 39.9% | viability, T/C [8] 38.9% | viability, T/C [9] 41.9% | viability, T/C [10] 36.1% | viability, T/C [11] 35.7% | viability, T/C [12] 17.7% | viability, T/C [13] 27.9% | viability, T/C [14] 23.6% | viability, T/C [15] 29.5% | viability, T/C [16] 25.2% | viability, T/C [17] 25.8% | viability, T/C [18] 15.1% | viability, T/C [19] 15.6% | viability, T/C [20] 15.3% | viability, T/C [21] 17.3% | viability, T/C [22] 19% | viability, T/C [23] 20.4% | viability, T/C [24] 9.16% | viability, T/C [25] 11.3% | viability, T/C [26] 15.5% | viability, T/C [27] 14.1% | viability, T/C [28] 9.51% | viability, T/C [29] 12.9% | viability, T/C [30] 7.27% | viability, T/C [31] 11.2%
